Type in all cases: cell-based
Test [1] concerns Pseudomonas aeruginosa (strain PA01). As to the kind of experiment: microbe, parasite or virus in culture. As to conditions: strain. A digest of the protocol:
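P. aeruginosa PAO1 grown overnight in LB, diluted to OD600 0.001 and mixed with ⅔-step peptide dilutions, then incubated at 37 °C for 18–24 h. After MTT staining, the lowest concentration with no visible growth was read by eye as the MIC.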

Test [2] has as its system Bacillus subtilis (strain BR151). The protocol:
(§1) Antimicrobial activity was assayed against Bacillus subtilis (strain BR151), Escherichia coli (strain DH5α) and Pseudomonas aeruginosa (strain PA01). Microdilution broth method was used to determine the minimal inhibitory concentration (MIC). A colony of bacteria was grown in LB-medium overnight at 37° C. The concentration was quantified by measuring absorbance at 600 nm and diluted to OD600=0.1 (1×10^8 CFU/mL). The samples were prepared as stock solutions of 1 mg mL^−1 in H2O and diluted serially by ⅔ in nutrient LB in a 96-well microtiterplate (Cornstar, polypropylene, untreated). The sample solutions (50 μL) were mixed with the diluted bacterial suspension with an OD600 nm of 0.001 (50 μL). […] The plates were incubated at 37° C. until satisfactory growth (18-24 h). For each test, two columns of the plate were kept for sterility control (SC, broth only) and growth control (GC, broth with bacterial inoculums, no antibiotics). 10 μL of a solution of MTT (0.1% in H2O) was added to each well. The minimal inhibitory concentration (MIC) was defined as the lowest concentration of the antimicrobial substance (peptide dendrimer) that inhibited visible growth of the tested bacteria (yellow) with the unaided eye. For microbiological study the linear peptide LysTyrLysLysAlaLeuLysLysLeuAlaLysLeuLeu (SEQ ID No. 1) was used as reference.
(§2) The AMPD library was tested for their antimicrobial activity against B. subtilis BR151, a Gram-positive bacterium and E. coli DH5α, another Gram-negative bacterium, to cover a broader spectrum of different bacteria. […] Therefore no explicit SAR can be established, but clearly the hydrophobic amino acids Ala and Tyr seem to have a significant influence in reducing activity.

Test [3] relates to Escherichia coli (strain DH5α). The protocol:
as §1, §2

Values after ≈ are worked out from the molar mass of the structure shown. Read-outs that look alike come from different tables or passages of the source. Positions of bridges follow the written chain, without caps; N, C: chain ends. Residues, ends and D or L forms follow the SMILES beside them. Groups on a side chain read outwards from the residue. Chains are numbered I, II in the order given. *: point of attachment. LeuLys(Leu) = CC(C)C[C@H](N)C(=O)NCCCC[C@H](NC(=O)[C@@H](N)CC(C)C)C(=O)*; X2 = NCCCC[C@H](N)C(=O)NCCCC[C@H](NC(=O)[C@@H](N)CCCCN)C(=O)*; X1 = CCCCCCCCCCCCCCCCCCCCCCCC(=O)*

As to `CC(C)C[C@H](NC(=O)[C@H](CCCCN)NC(=O)[C@H](CCCCNC(=O)[C@H](CC(C)C)NC(=O)[C@@H](N)CCCCN)NC(=O)[C@H](CC(C)C)NC(=O)[C@@H](N)CCCCN)C(=O)NCCCC[C@H](NC(=O)[C@H](CC(C)C)NC(=O)[C@H](CCCCN)NC(=O)[C@H](CCCCNC(=O)[C@H](CC(C)C)NC(=O)[C@@H](N)CCCCN)NC(=O)[C@H](CC(C)C)NC(=O)[C@@H](N)CCCCN)C(=O)N[C@@H](CCCCN)C(=O)N[C@@H](CC(C)C)C(=O)N[C@@H](CSSC[C@H](NC(=O)[C@H](CC(C)C)NC(=O)[C@H](CCCCN)NC(=O)[C@H](CCCCNC(=O)[C@H](CC(C)C)NC(=O)[C@H](CCCCN)NC(=O)[C@H](CCCCNC(=O)[C@H](CC(C)C)NC(=O)[C@@H](N)CCCCN)NC(=O)[C@H](CC(C)C)NC(=O)[C@@H](N)CCCCN)NC(=O)[C@H](CC(C)C)NC(=O)[C@H](CCCCN)NC(=O)[C@H](CCCCNC(=O)[C@H](CC(C)C)NC(=O)[C@@H](N)CCCCN)NC(=O)[C@H](CC(C)C)NC(=O)[C@@H](N)CCCCN)C(N)=O)C(N)=O` [CCS-3 dimer, ((KL)4(KKL)2KKLC)2] (I: H-KLK([Leu-Lys])KLKKLC-NH2 / II: H-KLK([Leu-Lys])KLKKLC-NH2 / III: H-KLK([Leu-Lys])KL / IV: H-KLK([Leu-Lys])KL; amide I:6-III:C, II:6-IV:C; disulfide I:9-II:9; N-terminus assumed), the “MIC P. aeruginosa PAO1” value in test [1] came to 3 µg/mL (≈ 0.684 µM). Also, the “MIC B. subtilis BR151” value in test [2] (strain BR151) was determined as 4 µg/mL (≈ 0.912 µM). For the same molecule, the “MIC E. coli DH5α” value in test [3] (DH5α) was 4 µg/mL (≈ 0.912 µM).
Regarding `CC(C)C[C@H](NC(=O)[C@H](CCCNC(=N)N)NC(=O)[C@H](CCCCNC(=O)[C@H](CC(C)C)NC(=O)[C@@H](N)CCCNC(=N)N)NC(=O)[C@H](CC(C)C)NC(=O)[C@@H](N)CCCNC(=N)N)C(=O)NCCCC[C@H](NC(=O)[C@H](CC(C)C)NC(=O)[C@H](CCCNC(=N)N)NC(=O)[C@H](CCCCNC(=O)[C@H](CC(C)C)NC(=O)[C@@H](N)CCCNC(=N)N)NC(=O)[C@H](CC(C)C)NC(=O)[C@@H](N)CCCNC(=N)N)C(=O)N[C@@H](CCCNC(=N)N)C(=O)N[C@@H](CC(C)C)C(=O)N[C@@H](CSSC[C@H](NC(=O)[C@H](CC(C)C)NC(=O)[C@H](CCCNC(=N)N)NC(=O)[C@H](CCCCNC(=O)[C@H](CC(C)C)NC(=O)[C@H](CCCNC(=N)N)NC(=O)[C@H](CCCCNC(=O)[C@H](CC(C)C)NC(=O)[C@@H](N)CCCNC(=N)N)NC(=O)[C@H](CC(C)C)NC(=O)[C@@H](N)CCCNC(=N)N)NC(=O)[C@H](CC(C)C)NC(=O)[C@H](CCCNC(=N)N)NC(=O)[C@H](CCCCNC(=O)[C@H](CC(C)C)NC(=O)[C@@H](N)CCCNC(=N)N)NC(=O)[C@H](CC(C)C)NC(=O)[C@@H](N)CCCNC(=N)N)C(N)=O)C(N)=O` [CCS-18 dimer, ((RL)4(KRL)2KRLC)2] (I: H-RLK([Leu-Arg])RLKRLC-NH2 / II: H-RLK([Leu-Arg])RLKRLC-NH2 / III: H-RLK([Leu-Arg])RL / IV: H-RLK([Leu-Arg])RL; amide I:6-III:C, II:6-IV:C; disulfide I:9-II:9; N-terminus assumed), in test [1], the “MIC P. aeruginosa PAO1” value turned out to be 9 µg/mL (≈ 1.88 µM). Also, the “MIC B. subtilis BR151” value in test [2] (strain BR151) was found to be 9 µg/mL (≈ 1.88 µM). The “MIC E. coli DH5α” value in test [3] (DH5α) amounted to 13 µg/mL (≈ 2.72 µM).
Take `CC(C)C[C@H](NC(=O)[C@H](CCCCN)NC(=O)[C@H](CCCCNC(=O)[C@H](CC(C)C)NC(=O)[C@H](CCCCN)NC(=O)[C@H](CCCCNC(=O)[C@H](CC(C)C)NC(=O)[C@H](CCCCN)NC(=O)CSC[C@H](NC(=O)[C@H](CC(C)C)NC(=O)[C@H](CCCCN)NC(=O)[C@H](CCCCNC(=O)[C@H](CC(C)C)NC(=O)[C@@H](N)CCCCN)NC(=O)[C@H](CC(C)C)NC(=O)[C@@H](N)CCCCN)C(N)=O)NC(=O)[C@H](CC(C)C)NC(=O)[C@H](CCCCN)NC(=O)CSC[C@H](NC(=O)[C@H](CC(C)C)NC(=O)[C@H](CCCCN)NC(=O)[C@H](CCCCNC(=O)[C@H](CC(C)C)NC(=O)[C@@H](N)CCCCN)NC(=O)[C@H](CC(C)C)NC(=O)[C@@H](N)CCCCN)C(N)=O)NC(=O)[C@H](CC(C)C)NC(=O)[C@H](CCCCN)NC(=O)[C@H](CCCCNC(=O)[C@H](CC(C)C)NC(=O)[C@H](CCCCN)NC(=O)CSC[C@H](NC(=O)[C@H](CC(C)C)NC(=O)[C@H](CCCCN)NC(=O)[C@H](CCCCNC(=O)[C@H](CC(C)C)NC(=O)[C@@H](N)CCCCN)NC(=O)[C@H](CC(C)C)NC(=O)[C@@H](N)CCCCN)C(N)=O)NC(=O)[C@H](CC(C)C)NC(=O)[C@H](CCCCN)NC(=O)CSC[C@H](NC(=O)[C@H](CC(C)C)NC(=O)[C@H](CCCCN)NC(=O)[C@H](CCCCNC(=O)[C@H](CC(C)C)NC(=O)[C@@H](N)CCCCN)NC(=O)[C@H](CC(C)C)NC(=O)[C@@H](N)CCCCN)C(N)=O)C(N)=O` [CCS-20, (KL)8(KKLCxKL)4(KKL)2KKL]: in test [1], the “MIC P. aeruginosa PAO1” value was determined as 3 µg/mL (≈ 0.489 µM). In test [2] (strain BR151), the “MIC B. subtilis BR151” value was determined as 10 µg/mL (≈ 1.63 µM). Moreover, in test [3] (DH5α), the “MIC E. coli DH5α” value was determined as 4 µg/mL (≈ 0.651 µM).
As to `CC(C)C[C@H](NC(=O)[C@H](CCCCNC(=O)[C@H](CC(C)C)NC(=O)[C@H](CCCCNC(=O)[C@H](CCCCN)NC(=O)[C@H](CCCCNC(=O)[C@@H](N)CCCCN)NC(=O)[C@@H](N)CCCCN)NC(=O)[C@H](CCCCN)NC(=O)[C@H](CCCCNC(=O)[C@@H](N)CCCCN)NC(=O)[C@@H](N)CCCCN)NC(=O)[C@H](CC(C)C)NC(=O)[C@H](CCCCNC(=O)[C@H](CCCCN)NC(=O)[C@H](CCCCNC(=O)[C@@H](N)CCCCN)NC(=O)[C@@H](N)CCCCN)NC(=O)[C@H](CCCCN)NC(=O)[C@H](CCCCNC(=O)[C@@H](N)CCCCN)NC(=O)[C@@H](N)CCCCN)C(N)=O` [MSt-148, (K)8(KK)4(KL)2(KL)NH2] (I: H-KK(Lys)KK([Lys-X2])LKL-NH2 / II: H-KK(Lys)KK([Lys-X2])L; amide I:6-II:C; N-terminus assumed), in test [2] (strain BR151), the “MIC B. subtilis BR151” value stood at 12 µg/mL (≈ 4.3 µM). Besides, the “MIC E. coli DH5α” value in test [3] (DH5α) was above 90 µg/mL.
Regarding `CC(C)C[C@H](NC(=O)[C@H](CCCCNC(=O)[C@@H](N)CC(C)C)NC(=O)[C@@H](N)CC(C)C)C(=O)NCCCC[C@H](NC(=O)[C@H](CC(C)C)NC(=O)[C@H](CCCCNC(=O)[C@@H](N)CC(C)C)NC(=O)[C@@H](N)CC(C)C)C(=O)N[C@@H](CCCCN)C(=O)NCCCC[C@H](NC(=O)[C@H](CCCCN)NC(=O)[C@H](CCCCNC(=O)[C@H](CC(C)C)NC(=O)[C@H](CCCCNC(=O)[C@@H](N)CC(C)C)NC(=O)[C@@H](N)CC(C)C)NC(=O)[C@H](CC(C)C)NC(=O)[C@H](CCCCNC(=O)[C@@H](N)CC(C)C)NC(=O)[C@@H](N)CC(C)C)C(=O)N[C@@H](CCCCN)C(N)=O` [MSt-149, (L)8(KL)4(KK)2(KK)NH2] (I: H-LK(Leu)LK([Leu-LeuLys(Leu)])KKK-NH2 / II: H-LK(Leu)LK([Leu-LeuLys(Leu)])K; amide I:6-II:C; N-terminus assumed), in test [2] (strain BR151), the “MIC B. subtilis BR151” value was 8 µg/mL (≈ 3.01 µM). The “MIC E. coli DH5α” value in test [3] (DH5α) was above 90 µg/mL.
Turning to `CCCCCCCCCCCCCCCCCCCCCCCC(=O)NCCCC[C@H](NC(=O)[C@H](CC(C)C)NC(=O)[C@H](CCCCN)NC(=O)[C@H](CCCCNC(=O)[C@H](CC(C)C)NC(=O)[C@H](CCCCN)NC(=O)[C@H](CCCCNC(=O)[C@H](CC(C)C)NC(=O)[C@@H](N)CCCCN)NC(=O)[C@H](CC(C)C)NC(=O)[C@@H](N)CCCCN)NC(=O)[C@H](CC(C)C)NC(=O)[C@H](CCCCN)NC(=O)[C@H](CCCCNC(=O)[C@H](CC(C)C)NC(=O)[C@@H](N)CCCCN)NC(=O)[C@H](CC(C)C)NC(=O)[C@@H](N)CCCCN)C(N)=O` [MSt-287, (KL)4(KKL)2(KKLKC24)] (I: H-KLK([Leu-Lys])KLKKLK(X1)-NH2 / II: H-KLK([Leu-Lys])KL; amide I:6-II:C), the “MIC B. subtilis BR151” value in test [2] (strain BR151) is 26 µg/mL (≈ 10.1 µM). Moreover, the “MIC E. coli DH5α” value in test [3] (DH5α) was 13 µg/mL (≈ 5.06 µM).
In the case of “(KL)32(KKL)16(KKLCxKL)8(KKL)4(KKL)2KKL [CCS-15]”, in test [2] (LB medium), the “MIC B. subtilis BR151” value is 26 µg/mL. The “MIC E. coli DH5α” value in test [3] (LB medium) was found to be 8 µg/mL.

Values taken from patent US10336792B2, “Antimicrobial peptide dendrimers” (priority 2014, dated 2019).
